Test results: patent US12077503B2, “Substituted cyclic amides and their use as herbicides” (FMC CORPORATION, priority 2015, dated 2024)

Assays:
Assay type in all cases: in vivo
[1] = system: ryegrass, Italian (Italian ryegrass, Lolium multiflorum); test: Test A postemergence; conditions: Lolium multiflorum, post-emergence, 240 h, read-out: Plant response rating, Ryegrass, Italian
Summary of the method: (§1)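 Each rating is a visual injury score from 0 to 100 given about 10 d after treatment, judged against untreated controls kept alongside in the greenhouse. In loam soil–sand blend, seeds got a preemergence directed soil spray, while postemergence plants were 2 to 10 cm tall at spraying.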

[2] = system: blackgrass (Alopecurus myosuroides); test: Test A postemergence; conditions: Alopecurus myosuroides, post-emergence, 240 h, read-out: Plant response rating, Blackgrass
Summary of the method: as §1

corn (Zea mays) = test: Test A postemergence; conditions: Zea mays, post-emergence, 240 h
Summary of the method: as §1

[3] = system: barnyardgrass (Echinochloa crus-galli); test: Test A postemergence; conditions: Echinochloa crus-galli, post-emergence, 240 h, read-out: Plant response rating, Barnyardgrass
Summary of the method: as §1

[4] = system: Galium (catchweed bedstraw, Galium aparine); test: Test A postemergence; conditions: Galium, post-emergence, 240 h, read-out: Plant response rating, Galium
Summary of the method: as §1

Kochia (Kochia scoparia) [5] = test: Test A postemergence; conditions: Bassia scoparia, post-emergence, 240 h, read-out: Plant response rating, Kochia
Summary of the method: as §1

[6] = system: ragweed (common ragweed, Ambrosia elatior); test: Test A postemergence; conditions: Ambrosia artemisiifolia, post-emergence, 240 h, read-out: Plant response rating, Ragweed
Summary of the method: as §1

[7] = system: giant foxtail (Setaria faberii); test: Test A postemergence; conditions: Setaria faberi, post-emergence, 240 h, read-out: Plant response rating, Foxtail, Giant
Summary of the method: as §1

[8] = system: pigweed (Amaranthus retroflexus); test: Test A postemergence; conditions: Amaranthus retroflexus, post-emergence, 240 h, read-out: Plant response rating, Pigweed
Summary of the method: as §1

[9] = system: wheat (Triticum aestivum); test: Test A postemergence; conditions: Triticum aestivum, post-emergence, 240 h, read-out: Plant response rating, Wheat
Summary of the method: as §1

[10] = system: ducksalad (Heteranthera limosa); test: Test B flooded paddy test; conditions: Heteranthera limosa, 250 g ai/ha, Flood; 0 to 100 scale where 0 is no effect and 100 is complete control; read-out: Ducksalad plant response rating
Summary of the method: (§2)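 Rating scale 0–100 (visual, vs untreated controls) after a 13–15 d greenhouse period; application to the flood layer, 3 cm above soil and maintained; plants at 2-leaf stage when treated.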

rice (Oryra sativa) = test: Test B flooded paddy test; conditions: Oryza sativa, 250 g ai/ha, Flood; 0 to 100 scale where 0 is no effect and 100 is complete control; read-out: Rice plant response rating
Summary of the method: as §2

[11] = system: sedge, umbrella (small-flower umbrella sedge, Cyperus difformis); test: Test B flooded paddy test; conditions: Cyperus difformis, 250 g ai/ha, Flood; 0 to 100 scale where 0 is no effect and 100 is complete control; read-out: Sedge, Umbrella plant response rating
Summary of the method: as §2

[12] = system: barnyardgrass (Echinochloa crus-galli); test: Test B flooded paddy test; conditions: Echinochloa crus-galli, 250 g ai/ha, Flood; 0 to 100 scale where 0 is no effect and 100 is complete control; read-out: Barnyardgrass plant response rating
Summary of the method: as §2

[13] = system: ryegrass, Italian (Italian ryegrass, Lolium multiflorum); test: Test A preemergence; conditions: Lolium multiflorum, pre-emergence, 240 h
Summary of the method: as §1

[14] = system: barnyardgrass (Echinochloa crus-galli); test: Test A preemergence; conditions: Echinochloa crus-galli, pre-emergence, 240 h
Summary of the method: as §1

Kochia (Kochia scoparia) [15] = test: Test A preemergence; conditions: Bassia scoparia, pre-emergence, 240 h
Summary of the method: as §1

[16] = system: ragweed (common ragweed, Ambrosia elatior); test: Test A preemergence; conditions: Ambrosia artemisiifolia, pre-emergence, 240 h
Summary of the method: as §1

[17] = system: giant foxtail (Setaria faberii); test: Test A preemergence; conditions: Setaria faberi, pre-emergence, 240 h
Summary of the method: as §1

[18] = system: pigweed (Amaranthus retroflexus); test: Test A preemergence; conditions: Amaranthus retroflexus, pre-emergence, 240 h
[19] = 125 g ai/ha, Postemergence, visual injury after approximately 10 d, 0 to 100 scale where 0 is no effect and 100 is complete control
[20] = 500 g ai/ha, postemergence, visual injury, 0 to 100 scale (0 no effect, 100 complete control), approx. 10 d

## CSc1ccccc1NC(=O)[C@H]1C(=O)N(C)C[C@@H]1c1ccc(C)c(Cl)c1 [Compound 1015]
[1]; [19]
  pest or weed control at 125 g/ha: 30%
[1]; [20]
  pest or weed control at 500 g/ha: 50%
[2]; [19]
  pest or weed control at 125 g/ha: 0%
[2]; [20]
  pest or weed control at 500 g/ha: 50%
Corn (Zea mays); [19]
  Corn plant response rating (crop injury, 0 = no effect, 100 = complete kill) at 125 g/ha: 70%
Corn (Zea mays); [20]
  Corn plant response rating (crop injury, 0 = no effect, 100 = complete kill) at 500 g/ha: 90%
[3]; [19]
  pest or weed control at 125 g/ha: 90%
[3]; [20]
  pest or weed control at 500 g/ha: 90%
[4]; [19]
  pest or weed control at 125 g/ha: 40%
[4]; [20]
  pest or weed control at 500 g/ha: 70%
Kochia (Kochia scoparia) [5]; [19]
  pest or weed control at 125 g/ha: 0%
Kochia (Kochia scoparia) [5]; [20]
  pest or weed control at 500 g/ha: 50%
[6]; [19]
  pest or weed control at 125 g/ha: 0%
[6]; [20]
  pest or weed control at 500 g/ha: 40%
[7]; [19]
  pest or weed control at 125 g/ha: 80%
[7]; [20]
  pest or weed control at 500 g/ha: 80%
[8]; [19]
  pest or weed control at 125 g/ha: 30%
[8]; [20]
  pest or weed control at 500 g/ha: 50%
[9]; [19]
  plant injury at 125 g/ha: 0%
[9]; [20]
  plant injury at 500 g/ha: 60%
[10]
  pest or weed control at 250 g/ha: 90%
Rice (Oryra sativa)
  pest or weed control at 250 g/ha: 40%
[11]
  pest or weed control at 250 g/ha: 35%
[12]
  pest or weed control at 250 g/ha: 95%
[13]; 125 g ai/ha, Preemergence, visual injury rating after approximately 10 d, read-out: Ryegrass, Italian plant response rating (0 to 100 scale, 0 is no effect, 100 is complete control)
  pest or weed control at 125 g/ha: 40%
[13]; 500 g ai/ha, preemergence, visual injury rating about 10 d after treatment, 0 to 100 scale (0 no effect, 100 complete control), read-out: Ryegrass, Italian plant response rating
  pest or weed control at 500 g/ha: 90%
[14]; 125 g ai/ha, Preemergence, visual injury rating after approximately 10 d, read-out: Barnyardgrass plant response rating (0 to 100 scale, 0 is no effect, 100 is complete control)
  pest or weed control at 125 g/ha: 90%
[14]; 500 g ai/ha, preemergence, visual injury rating about 10 d after treatment, 0 to 100 scale (0 no effect, 100 complete control), read-out: Barnyardgrass plant response rating
  pest or weed control at 500 g/ha: 90%
Kochia (Kochia scoparia) [15]; 125 g ai/ha, Preemergence, visual injury rating after approximately 10 d, read-out: Kochia plant response rating (0 to 100 scale, 0 is no effect, 100 is complete control)
  pest or weed control at 125 g/ha: 0%
Kochia (Kochia scoparia) [15]; 500 g ai/ha, preemergence, visual injury rating about 10 d after treatment, 0 to 100 scale (0 no effect, 100 complete control), read-out: Kochia plant response rating
  pest or weed control at 500 g/ha: 60%
[16]; 125 g ai/ha, Preemergence, visual injury rating after approximately 10 d, read-out: Ragweed plant response rating (0 to 100 scale, 0 is no effect, 100 is complete control)
  pest or weed control at 125 g/ha: 0%
[16]; 500 g ai/ha, preemergence, visual injury rating about 10 d after treatment, 0 to 100 scale (0 no effect, 100 complete control), read-out: Ragweed plant response rating
  pest or weed control at 500 g/ha: 50%
[17]; 125 g ai/ha, Preemergence, visual injury rating after approximately 10 d, read-out: Foxtail, Giant plant response rating (0 to 100 scale, 0 is no effect, 100 is complete control)
  pest or weed control at 125 g/ha: 90%
[17]; 500 g ai/ha, preemergence, visual injury rating about 10 d after treatment, 0 to 100 scale (0 no effect, 100 complete control), read-out: Foxtail, Giant plant response rating
  pest or weed control at 500 g/ha: 90%
[18]; 125 g ai/ha, Preemergence, visual injury rating after approximately 10 d, read-out: Pigweed plant response rating (0 to 100 scale, 0 is no effect, 100 is complete control)
  pest or weed control at 125 g/ha: 0%
[18]; 500 g ai/ha, preemergence, visual injury rating about 10 d after treatment, 0 to 100 scale (0 no effect, 100 complete control), read-out: Pigweed plant response rating
  pest or weed control at 500 g/ha: 40%
